In US10081624B2, “Heterocyclic compound” (Takeda Pharmaceutical Company Limited, priority 2014, dated 2018):

Legend:
HDAC6 enzyme = target: T1, HDAC6 enzyme (Homo sapiens, UniProt Q9UBN7); test: HDAC6 enzyme inhibitory assay (HDAC-Glo I/II Assay kit); assay type: biochemical; details: 1 μM test compound; read-out: HDAC6 inhibitory rate (%) (1 μM)
T1 construct: prepared by transducing full length HDAC1 and HDAC6 genes into Sf-9 insect cells; GST; purchased SignalChem; host or cells: Sf-9 insect cells
T1 sequence (Q9UBN7 1-1215): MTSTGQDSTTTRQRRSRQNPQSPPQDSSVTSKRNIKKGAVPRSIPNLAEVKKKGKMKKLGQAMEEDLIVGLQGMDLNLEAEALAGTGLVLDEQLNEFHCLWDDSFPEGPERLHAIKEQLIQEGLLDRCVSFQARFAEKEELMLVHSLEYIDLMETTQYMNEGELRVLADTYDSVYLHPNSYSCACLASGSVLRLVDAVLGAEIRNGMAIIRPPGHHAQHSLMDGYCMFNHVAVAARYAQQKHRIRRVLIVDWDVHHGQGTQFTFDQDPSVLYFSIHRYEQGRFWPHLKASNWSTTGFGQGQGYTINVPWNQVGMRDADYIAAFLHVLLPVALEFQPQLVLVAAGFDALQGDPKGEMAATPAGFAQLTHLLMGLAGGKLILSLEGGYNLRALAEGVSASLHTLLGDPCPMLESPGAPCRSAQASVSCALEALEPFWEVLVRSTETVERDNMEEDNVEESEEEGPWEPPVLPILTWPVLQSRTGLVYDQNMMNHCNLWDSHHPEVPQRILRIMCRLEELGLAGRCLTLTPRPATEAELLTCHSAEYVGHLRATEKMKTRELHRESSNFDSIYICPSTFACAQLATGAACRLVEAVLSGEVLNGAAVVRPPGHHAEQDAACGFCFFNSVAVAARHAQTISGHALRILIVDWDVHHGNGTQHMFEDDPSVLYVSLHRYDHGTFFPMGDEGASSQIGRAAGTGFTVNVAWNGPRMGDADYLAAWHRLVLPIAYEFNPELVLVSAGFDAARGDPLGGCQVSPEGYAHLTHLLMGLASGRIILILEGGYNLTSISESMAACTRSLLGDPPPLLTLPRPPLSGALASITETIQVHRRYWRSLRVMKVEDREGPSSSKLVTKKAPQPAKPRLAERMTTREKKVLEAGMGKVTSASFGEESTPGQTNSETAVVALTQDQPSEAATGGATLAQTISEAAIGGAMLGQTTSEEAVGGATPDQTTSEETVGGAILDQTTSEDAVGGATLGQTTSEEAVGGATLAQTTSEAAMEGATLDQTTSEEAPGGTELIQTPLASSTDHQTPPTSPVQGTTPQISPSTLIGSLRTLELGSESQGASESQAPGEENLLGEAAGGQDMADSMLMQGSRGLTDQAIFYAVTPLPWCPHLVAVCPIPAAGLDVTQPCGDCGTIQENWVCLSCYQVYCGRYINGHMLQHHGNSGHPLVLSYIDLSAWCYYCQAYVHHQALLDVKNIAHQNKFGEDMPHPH
Method in brief: (§1)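 Full-length GST-purified HDAC1 or HDAC6 (Sf-9 expressed) preincubated 60 min at room temperature with compound in Tris-HCl pH 7.5 buffer with glutathione and Tween-20. HDAC-Glo substrate-developer added, 20 min at room temperature, then luminescence read; inhibition relative to no-enzyme wells as 100%.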

HDAC1 enzyme = target: T2, HDAC1 enzyme (Homo sapiens, UniProt Q13547); test: HDAC1 enzyme inhibitory assay (HDAC-Glo I/II Assay kit); assay type: biochemical; details: 1 μM test compound; read-out: HDAC1 inhibitory rate (%) (1 μM)
T2 construct: prepared by transducing full length HDAC1 and HDAC6 genes into Sf-9 insect cells; GST; purchased SignalChem; host or cells: Sf-9 insect cells
T2 sequence (Q13547 whole entry): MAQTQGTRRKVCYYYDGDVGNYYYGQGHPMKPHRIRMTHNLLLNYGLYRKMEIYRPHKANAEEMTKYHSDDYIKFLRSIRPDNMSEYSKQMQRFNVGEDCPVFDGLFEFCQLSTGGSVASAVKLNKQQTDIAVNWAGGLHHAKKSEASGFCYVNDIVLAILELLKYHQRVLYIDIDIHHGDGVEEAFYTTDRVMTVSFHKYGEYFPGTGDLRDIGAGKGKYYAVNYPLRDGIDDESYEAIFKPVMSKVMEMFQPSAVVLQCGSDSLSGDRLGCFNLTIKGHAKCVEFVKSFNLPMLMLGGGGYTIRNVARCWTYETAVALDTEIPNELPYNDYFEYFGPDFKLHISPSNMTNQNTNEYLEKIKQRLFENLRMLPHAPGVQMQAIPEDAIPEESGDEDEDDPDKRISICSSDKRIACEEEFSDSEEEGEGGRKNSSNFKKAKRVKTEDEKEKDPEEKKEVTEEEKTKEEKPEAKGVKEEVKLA
Method in brief: as §1

Compound	inhibition at 1 µM (HDAC6 enzyme)	inhibition at 1 µM (HDAC1 enzyme)
Cc1oncc1C(=O)N1CCOC[C@@H]1CNC(=O)c1ccc(-c2noc(C(F)(F)F)n2)s1 [Example 259, N-(((3S)-4-((5-methyl-1,2-oxazol-4-yl)carbonyl)morpholin-3-yl)methyl)-5-(5-(trifluoromethyl)-1,2,4-oxadiazol-3-yl)thiophene-2-carboxamide]	100%	25%
Cc1nonc1C(=O)N1CCOC[C@@H]1CNC(=O)c1ccc(-c2noc(C(F)(F)F)n2)s1 [Example 260, N-(((3S)-4-((4-methyl-1,2,5-oxadiazol-3-yl)carbonyl)morpholin-3-yl)methyl)-5-(5-(trifluoromethyl)-1,2,4-oxadiazol-3-yl)thiophene-2-carboxamide]	98%	44%
O=C(NC[C@H]1COCCN1C(=O)C(F)(F)c1ccccc1)c1ccc(-c2noc(C(F)(F)F)n2)s1 [Example 261, N-(((3S)-4-(difluoro(phenyl)acetyl)morpholin-3-yl)methyl)-5-(5-(trifluoromethyl)-1,2,4-oxadiazol-3-yl)thiophene-2-carboxamide]	101%	53%
O=C(NC[C@H]1COCCN1C(=O)c1cccc(-c2ccccc2)c1)c1ccc(-c2noc(C(F)(F)F)n2)s1 [Example 262, N-(((3S)-4-(biphenyl-3-ylcarbonyl)morpholin-3-yl)methyl)-5-(5-(trifluoromethyl)-1,2,4-oxadiazol-3-yl)thiophene-2-carboxamide]	94%	16%
CC(C)(C(=O)N1CCOC[C@@H]1CNC(=O)c1ccc(-c2noc(C(F)(F)F)n2)s1)c1ccccc1 [Example 263, N-(((3S)-4-(2-methyl-2-phenylpropanoyl)morpholin-3-yl)methyl)-5-(5-(trifluoromethyl)-1,2,4-oxadiazol-3-yl)thiophene-2-carboxamide]	99%	32%
Cc1nonc1C(=O)N1CCOC[C@H]1CNC(=O)c1ccc(-c2noc(C(F)(F)F)n2)s1 [Example 264, N-(((3R)-4-((4-methyl-1,2,5-oxadiazol-3-yl)carbonyl)morpholin-3-yl)methyl)-5-(5-(trifluoromethyl)-1,2,4-oxadiazol-3-yl)thiophene-2-carboxamide]	99%	48%
O=C(NC[C@@H]1COCCN1C(=O)C(F)(F)c1ccccc1)c1ccc(-c2noc(C(F)(F)F)n2)s1 [Example 265, N-(((3R)-4-(difluoro(phenyl)acetyl)morpholin-3-yl)methyl)-5-(5-(trifluoromethyl)-1,2,4-oxadiazol-3-yl)thiophene-2-carboxamide]	99%	76%
O=C(NC[C@@H]1COCCN1C(=O)C1CCCCC1)c1ccc(-c2noc(C(F)(F)F)n2)s1 [Example 266, N-(((3R)-4-(cyclohexylcarbonyl)morpholin-3-yl)methyl)-5-(5-(trifluoromethyl)-1,2,4-oxadiazol-3-yl)thiophene-2-carboxamide]	98%	30%
COC(=O)c1cccc(C(=O)N2CCOC[C@@H]2CNC(=O)c2ccc(-c3noc(C(F)(F)F)n3)cc2)c1 [Example 268, methyl 3-(((3S)-3-(((4-(5-(trifluoromethyl)-1,2,4-oxadiazol-3-yl)benzoyl)amino)methyl)morpholin-4-yl)carbonyl)benzoate]	96%	15%
O=C(O)c1cccc(C(=O)N2CCOC[C@@H]2CNC(=O)c2ccc(-c3noc(C(F)(F)F)n3)cc2)c1 [Example 269, 3-(((3S)-3-(((4-(5-(trifluoromethyl)-1,2,4-oxadiazol-3-yl)benzoyl)amino)methyl)morpholin-4-yl)carbonyl)benzoic acid]	89%	7%
CN1CCC[C@H]1C(=O)N1CCOC[C@@H]1CNC(=O)c1ccc(-c2noc(C(F)(F)F)n2)cc1 [Example 270, N-(((3S)-4-(1-methyl-L-prolyl)morpholin-3-yl)methyl)-4-(5-(trifluoromethyl)-1,2,4-oxadiazol-3-yl)benzamide]	59%	-1%
